From US20230136562A1, “SPIROUREA DERIVATIVES” (Idorsia Pharmaceuticals Ltd, priority 2020, published 2023)
Where two headings read alike, the source gives them in different places.

Columns and labels:
[1] = system: primary neuronal cultures from embryonic rat brains; experiment: Rat oscillation assay (FLIPR, neuronal calcium oscillations); assay type: cell-based; settings: Rattus norvegicus
Procedure, shortened: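 Cortical neurons from E18 Wistar rat embryos, cultured 8–10 days at high density, loaded with 1 μM Fluo-8 AM; calcium oscillations recorded by FLIPR once per second in Mg-free HBSS with 2 mM CaCl2, 20 mM HEPES, pH 7.4. Two acquisitions ("Acute", 500 sec, compound added at 250 sec; "20 min"), ± Kv7 blocker XE-991.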

[2] = molecular target: T1, Kv7.2/7.3 (Homo sapiens, UniProt O43525+O43526); experiment: Kv7.2/3 assay (FLIPR potassium assay, agonist mode); assay type: cell-based; settings: Kv7.2/7.3 activation; HEK293 cells, human KCNQ2 and KCNQ3
T1 construct: expressed in transfected cells; host or cells: HEK293
Protocol: HEK293 cells were stably transfected with the appropriate ion channel cDNA(s) (human KCNQ2 and KCNQ3 genes). Cells were cultured in Dulbecco's Modified Eagle Medium/Nutrient mixture F-12 (D-MEM/F-12) supplemented with 10% fetal bovine serum, 100 U/mL penicillin G sodium, 100 µg/mL streptomycin sulfate and selection antibiotics. FLIPR Test Procedure: For FLIPR assay, cells were plated in 384-well black clear-bottomed microtiter plates (BD Biocoat Poly-D-Lysine Multiwell Cell Culture Plate) at 15'000 to 30'000 cells per well. Cells were incubated at 37° C. overnight or until cells reached sufficient density in the wells (near confluent monolayer) to use in fluorescence assays. […] Assays were performed with the FLIPR potassium assay kit (Molecular Devices) according to the manufacturer's instructions. Dye-loading: Growth media was removed and replaced with 20 μL of dye loading buffer for 60 min at room temperature. FLIPR Recording (agonist mode): Stock solutions of test compounds were prepared at a concentration of 33.3 mM in DMSO. 5 μL of 5× concentrated test, vehicle, or control compounds solutions prepared in the stimulation buffer (K^+-free buffer with 5 mM TI^+) were added to each well and fluorescence recording was continued for 5 min. The agonist effect (EC50 and % effect) of test or control compounds on Kv7 channels was determined as follows: Raw data was exported using Screenworks® 4.2 software and the fluorescence traces were analysed using Microsoft Excel (Microsoft Corp., Redmond, Wash.). The test compounds responses were expressed as % of maximum response of the control compound Flupirtine (Sigma-Aldrich), which was tested at concentrations ranging from 0.03 to 100 μM. Concentration-response data were fitted to a Hill equation. Non-linear least squares fits were made assuming a simple binding model. If appropriate, fits were weighted by the standard deviation. No assumptions about the fit parameters were made; the fit parameters were determined by the algorithm.

[3] = 20 min, AUC of fluorescence measured 20 min after compound addition, read-out: FLIPR: IC50 [nM] 20 min
[4] = Acute phase, ratio of AUC fluorescence before and after compound addition, read-out: FLIPR: IC50 [nM] acute

Compound	IC50 [1, 3] [nM]	IC50 [1, 4] [nM]	EC50 [2] [nM]
C[C@H](NC(=O)NC1CC2(CCC2)C1)c1cccc(C(F)(F)F)c1 (single isomer, unassigned) [Example 175]	5.5	9	30
C[C@H](NC(=O)NC1CC2(CCC2)C1)c1ccc(F)c(OCC(F)(F)F)c1 (single isomer, unassigned) [Example 177]	24	22	7
O=C(NCc1cccc(C(F)(F)F)c1)NC1CC2(CCC2)C1 [Example 1, 1-Spiro[3.3]hept-2-yl-3-(3-trifluoromethyl-benzyl)-urea]	20	27	30
O=C(NCc1cccc(C2(C(F)(F)F)CC2)c1)NC1CC2(CCC2)C1 [Example 37, 1-Spiro[3.3]hept-2-yl-3-[3-(1-trifluoromethyl-cyclopropyl)-benzyl]-urea]	8.1	10	1.5
O=C(NC1CC2(CCC2)C1)NC(c1cccc(C(F)(F)F)c1)c1nc[nH]n1 (centres unmarked) [Example 56, 1-Spiro[3.3]hept-2-yl-3-[(1H-[1,2,4]triazol-3-yl)-(3-trifluoromethyl-phenyl)-methyl]-urea]	9.7	27	–
O=C(NC1CC2(CCC2)C1)NC(c1cccc(C(F)(F)F)c1)C(F)F (centres unmarked) [Example 57, 1-[2,2-Difluoro-1-(3-trifluoromethyl-phenyl)-ethyl]-3-spiro[3.3]hept-2-yl-urea]	2.3	2.9	–
O=C(NC1CC2(CCC2)C1)NC(c1cccc(C(F)(F)F)c1)C(F)(F)F (centres unmarked) [Example 58, 1-Spiro[3.3]hept-2-yl-3-[2,2,2-trifluoro-1-(3-trifluoromethyl-phenyl)-ethyl]-urea]	16	20	–
Cc1nc(CNC(=O)NC2CC3(CCC3)C2)cc(OCC(F)(F)F)n1 [Example 60, 1-[2-Methyl-6-(2,2,2-trifluoro-ethoxy)-pyrimidin-4-ylmethyl]-3-spiro[3.3]hept-2-yl-urea]	144	109	42
O=C(NCc1ccnc(OCC(F)(F)F)n1)NC1CC2(CCC2)C1 [Example 70, 1-Spiro[3.3]hept-2-yl-3-[2-(2,2,2-trifluoro-ethoxy)-pyrimidin-4-ylmethyl]-urea]	546	219	–
O=C(NCc1ccnc(OC(F)(F)F)c1)NC1CC2(CCC2)C1 [Example 96, 1-Spiro[3.3]hept-2-yl-3-(2-trifluoromethoxy-pyridin-4-ylmethyl)-urea]	61	82	–
CC(NC(=O)NC1CC2(CCC2)C1)c1ccnc(OC(C)C(F)(F)F)c1 (centres unmarked) [Example 101, 1-(Spiro[3.3]heptan-2-yl)-3-(1-(2-((1,1,1-trifluoropropan-2-yl)oxy)pyridin-4-yl)ethyl)urea]	1.6	2.4	–
CC(NC(=O)NC1CC2(CCC2)C1)c1cccc(OC(C)C(F)(F)F)c1 (centres unmarked) [Example 102, 1-(Spiro[3.3]heptan-2-yl)-3-(1-(3-((1,1,1-trifluoropropan-2-yl)oxy)phenyl)ethyl)urea]	0.5	2.8	–
O=C(NCc1ccnc(OCC(F)(F)F)c1)NC1CC2(CCC2)C1 [Example 103, 1-Spiro[3.3]hept-2-yl-3-[2-(2,2,2-trifluoro-ethoxy)-pyridin-4-ylmethyl]-urea]	7.4	4.8	1.5
Cc1ccc(CNC(=O)NC2CC3(CCC3)C2)nc1OCC(F)(F)F [Example 108, 1-[5-Methyl-6-(2,2,2-trifluoro-ethoxy)-pyridin-2-ylmethyl]-3-spiro[3.3]hept-2-yl-urea]	279	205	–
Cc1ccc(CNC(=O)NC2CC3(CCC3)C2)cc1OCC(F)(F)F [Example 109, 1-[4-Methyl-3-(2,2,2-trifluoro-ethoxy)-benzyl]-3-spiro[3.3]hept-2-yl-urea]	262	200	–
O=C(NCc1nccc(OCC(F)(F)F)n1)NC1CC2(CCC2)C1 [Example 112, 1-Spiro[3.3]hept-2-yl-3-[4-(2,2,2-trifluoro-ethoxy)-pyrimidin-2-ylmethyl]-urea]	1420	1100	–
O=C(NCc1ccc(F)c(OCC(F)(F)F)c1)NC1CC2(CCC2)C1 [Example 114, 1-[4-Fluoro-3-(2,2,2-trifluoro-ethoxy)-benzyl]-3-spiro[3.3]hept-2-yl-urea]	61	107	–

Compound	IC50 [1, 3] [nM]	IC50 [1, 4] [nM]	EC50 [2] [nM]
CN(CC(F)(F)F)c1cc(CNC(=O)NC2CC3(CCC3)C2)ccn1 [Example 115, 1-{2-[Methyl-(2,2,2-trifluoro-ethyl)-amino]-pyridin-4-ylmethyl}-3-spiro[3.3]hept-2-yl-urea]	241	185	–
CC(NC(=O)NC1CC2(CCC2)C1)c1cccc(OC(F)(F)F)c1 (centres unmarked) [Example 119, 1-Spiro[3.3]hept-2-yl-3-[1-(3-trifluoromethoxy-phenyl)-ethyl]-urea]	12	10	–
COc1ccc(C(F)(F)F)cc1CNC(=O)NC1CC2(CC2)C1 [Example 125, 1-(2-Methoxy-5-trifluoromethyl-benzyl)-3-spiro[2.3]hex-5-yl-urea]	1990	1820	–
O=C(NCc1nccc(OCC(F)(F)F)n1)NC1CC2(CC2)C1 [Example 126, 1-Spiro[2.3]hex-5-yl-3-[4-(2,2,2-trifluoro-ethoxy)-pyrimidin-2-ylmethyl]-urea]	7620	4960	–
COc1c(CNC(=O)NC2CC3(CC3)C2)cccc1C(F)(F)F [Example 128, 1-(2-Methoxy-3-trifluoromethyl-benzyl)-3-spiro[2.3]hex-5-yl-urea]	950	981	–
O=C(NCc1cccc(S(F)(F)(F)(F)F)c1)NC1CC2(CC2)C1 [Example 130, 1-(3-(pentafluoro-λ^6-sulfaneyl)benzyl)-3-(spiro[2.3]hexan-5-yl)urea]	42	30	–
O=C(NCc1cccc(OC(F)(F)F)c1F)NC1CC2(CC2)C1 [Example 134, 1-(2-Fluoro-3-trifluoromethoxy-benzyl)-3-spiro[2.3]hex-5-yl-urea]	82	63	–
O=C(NC1CC2(CC2)C1)NC1(c2cccc(OC(F)F)c2)CC1 [Example 136, 1-[1-(3-Difluoromethoxy-phenyl)-cyclopropyl]-3-spiro[2.3]hex-5-yl-urea]	386	334	–
O=C(NCc1cc(F)cc(C(F)(F)F)c1)NC1CC2(CC2)C1 [Example 142, 1-(3-Fluoro-5-trifluoromethyl-benzyl)-3-spiro[2.3]hex-5-yl-urea]	277	204	–
O=C(NCc1ccc(F)c(C(F)(F)F)c1)NC1CC2(CC2)C1 [Example 148, 1-(4-Fluoro-3-trifluoromethyl-benzyl)-3-spiro[2.3]hex-5-yl-urea]	355	312	–
O=C(NCc1cccc(C(F)(F)F)c1F)NC1CC2(CC2)C1 [Example 149, 1-(2-Fluoro-3-trifluoromethyl-benzyl)-3-spiro[2.3]hex-5-yl-urea]	103	98	–
O=C(NCc1cccc(C(F)(F)F)c1Cl)NC1CC2(CC2)C1 [Example 150, 1-(2-Chloro-3-trifluoromethyl-benzyl)-3-spiro[2.3]hex-5-yl-urea]	1160	1080	–
O=C(NCc1cc(C(F)(F)F)ccc1F)NC1CC2(CC2)C1 [Example 151, 1-(2-Fluoro-5-trifluoromethyl-benzyl)-3-spiro[2.3]hex-5-yl-urea]	419	269	–
O=C(NCc1ccnc(OC(F)(F)F)c1)NC1CC2(CC2)C1 [Example 153, 1-Spiro[2.3]hex-5-yl-3-(2-trifluoromethoxy-pyridin-4-ylmethyl)-urea]	601	336	–
O=C(NCc1cccc(OC(F)(F)F)c1)NC1CC2(CC2)C1 [Example 156, 1-Spiro[2.3]hex-5-yl-3-(3-trifluoromethoxy-benzyl)-urea]	83	60	–
O=C(NCc1cccc(OCC(F)(F)F)c1)NC1CC2(CC2)C1 [Example 157, 1-Spiro[2.3]hex-5-yl-3-[3-(2,2,2-trifluoro-ethoxy)-benzyl]-urea]	156	74	–
O=C(NCc1cccc(C(F)F)c1)NC1CC2(CC2)C1 [Example 158, 1-(3-Difluoromethyl-benzyl)-3-spiro[2.3]hex-5-yl-urea]	414	390	–
